Experimental data from patent US5489609A (Zaidan Hoijn Seisan Kaihatsu Kagaku Kenkyusho, priority 1992, dated 1996).

How the values were obtained:
[1] = system: Hepatopathy in mice (carbon tetrachloride); assay: Anti-hepatitis test: hepatopathy in mice (carbon tetrachloride); assay type: in vivo, ddy strain male mice
Protocol: A group of 8 ddy strain male mice (weighing about 30 g) kept fasting from the previous day was treated by intraperitoneal injection of 0.5% carbon tetrachloride in olive oil at a dose of 0.6 ml and thereafter allowed free access to food. Three hours after the administration of carbon tetrachloride, the test compound suspended in powdered gum arabic was given to the animals orally at a dose of 200 mg/kg, and blood samples were drawn from the mice under anesthesia with ether through the abdominal descending aorta 24 hours after the administration of carbon tetrachloride. The collected blood was centrifuged at a rate of 3,000 rpm for 15 min, followed by measurement of the activities of aspartate transaminase (AST) and alanine transaminase (ALT) by means of the Lippie method.

[2] = system: isolated liver cells of rats; assay: Disorder of isolated liver cells (carbon tetrachloride vapor; ALT and AST leached out); assay type: cell-based; conditions: for ALT, mean ± S.D. / AST, mean ± S.D.: 37° C., 30 min, * p < 0.05
Protocol: Isolated liver cells of rats were prepared by means of the Segren's collagenase irrigation method, whereby a liver cell suspension was prepared to a concentration of […]. Into 2 ml of the suspension placed in an Erlenmeyer flask was put a test tube of about 0.5 ml capacity containing a 25% carbon tetrachloride solution in olive oil to saturate the reaction system with carbon tetrachloride vapor, and after the flask was tightly stoppered, preincubation was carried out at 37° C. for 30 min. One ml of a solution of the test compound in Hunk's solution was added to the suspension of liver cells, while 1 ml of Hunk's solution was added to a control. After the reaction was allowed to proceed at 37° C. for 30 min, a specifically determined volume of the reaction solution was pipetted out and immediately centrifuged under 500 g for 30 seconds, and ALT and AST leached out into the supernatant liquid were determined for activity by the Lippie method.

[3] = system: acetaldehyde toxicity; assay: Protective activity against acetaldehyde toxicity (death rate within 24 hours); assay type: in vivo, Rats; conditions: for Death rate / No. of dead animals (n/10): 30 min before acetaldehyde 1,200 mg/kg, 24 h
Protocol: Rats kept fasting with a supply of drinking water were weighed and divided into groups in such a manner that the mean body weight was uniform among the groups, with each group consisting of 10 heads. The rats were given acetaldehyde orally at a dose of 1,200 mg/kg, and the death rate within 24 hours was determined, wherein the test drug substances were administered orally 30 min before the application of acetaldehyde, with the vehicle (0.5% aqueous sodium carboxymethylcellulose) alone being given to a control group.

[4] = system: Stomach injury with hydrochloric acid/ethanol; assay: Anti-ulcer test: stomach injury with hydrochloric acid/ethanol; assay type: in vivo, male rats of KBL Wistar strain
Protocol: The rats were divided into groups each consisting of 8 heads in such a way that their mean body weights were nearly uniform among the groups, treated by oral administration of hydrochloric acid/ethanol (0.15 mole hydrochloric acid solution in 80% ethanol) at a dose of 5 ml/kg body weight and sacrificed through cervical vertebrae dislocation 1 hour after administration. The stomachs were removed and treated with formalin, and individual ulcers formed in the glandular portion of the stomach were measured in length (mm), with the measured ulcer lengths summed for each rat. The test compound was suspended in a 0.5% aqueous solution of sodium carboxymethylcellulose, and the suspension was given to the test group orally at a dose of 10 ml/kg body weight 30 min before administration of hydrochloric acid/ethanol, whereas the vehicle (0.5% aqueous sodium carboxymethyl-cellulose) alone was applied to a control group.

[5] = system: Stomach injury through water-immersion constraint stress; assay: Anti-ulcer test: stomach injury through water-immersion constraint stress; assay type: in vivo, male rats of KBL Wistar strain
Protocol: The rats were divided into groups each consisting of 8 heads in such a way that their mean body weights were nearly uniform among the groups, stress-loaded by soaking the animals placed in a stress cage of Univ. of Tokyo type in a water tank at 23° C. up to the xiphoid and then sacrificed through cervical vertebrae dislocation 7.5 hours later. The stomachs were removed and treated with formalin, and individual ulcers formed in the glandular portion of the stomach were measured in length (mm), with the measured ulcer lengths being summed for each rat. The test compound, suspended in a 0.5% aqueous solution of sodium carboxymethylcellulose, was given to the test group orally at a dose of 10 ml/kg body weight 30 min before the water-soaking constraint, whereas the vehicle alone was applied to a control group.

[6] = system: Rats of KBL Wistar strain; assay: Acute toxicity test; assay type: in vivo; conditions: 7 day period
Protocol: Rats of KBL Wistar strain (weighing about […]), divided into groups each consisting of 3 heads, were treated through oral administration of the test compound suspended in powder gum arabic, followed by observation for any abnormalities over a 7 day period to find the number of dead animals.

[7] = Pharmacological tests (general statement on anti-hepatitis, liver function and anti-ulcer activity); assay type: in vivo; conditions: in words
[8] = 200 mg/kg orally 3 h after carbon tetrachloride, blood 24 h after carbon tetrachloride, * p < 0.05
[9] = conc. of test soln. 0.0125 mg/dl
[10] = conc. of test soln. 0.025 mg/dl
[11] = 50 mg/kg orally, vs Vehicle No. 1

NCCS(=O)(=O)[O-].NCCS(=O)(=O)[O-].[Zn+2] [TTZ, Bis(2-aminoethanesulfonic acid)zinc]
ALT, mean ± S.D. [1, 8]: 8899.4 ± 927.9 IU | AST, mean ± S.D. [1, 8]: 7256.9 ± 1464.7 IU | suppressory activity (hepatopathy in mice) ([1]; 200 mg/kg orally, in words): significant suppressory activity equal to that of FTZ | ALT, mean ± S.D. [2, 9]: 944.7 ± 61.7 IU | AST, mean ± S.D. [2, 9]: 327.9 ± 36.6 IU | ALT, mean ± S.D. [2, 10]: 637.2 ± 93.7 IU | AST, mean ± S.D. [2, 10]: 125.7 ± 48.2 IU | ALT, mean ± S.D. ([2]; conc. of test soln. 0.05 mg/dl): 649.1 ± 42.4 IU | AST, mean ± S.D. ([2]; conc. of test soln. 0.05 mg/dl): 68.2 ± 7.5 IU | ALT, mean ± S.D. ([2]; conc. of test soln. 0.1 mg/dl): 525.1 ± 26.0 IU | AST, mean ± S.D. ([2]; conc. of test soln. 0.1 mg/dl): 44.3 ± 11.1 IU | suppressory activity (isolated liver cells) ([2]; in words): suppressory activity equal to that of FTZ but clearly superior to that of 2-aminoethanesulfonic acid alone | Death rate ([3]; 150 mg/kg orally): 30% | No. of dead animals (n/10) ([3]; 150 mg/kg orally): 3/10 | Death rate ([3]; 300 mg/kg orally): 0% | No. of dead animals (n/10) ([3]; 300 mg/kg orally): 0/10 | protective activity against the lethal toxicity of acetaldehyde ([3]; in words): distinct protective activity against the lethal toxicity of acetaldehyde at lower doses than FTZ, which activity was shown to be more potent than that of 2-aminoethanesulfonic acid | Incidence of ulcer ([4]; 12.5 mg/kg orally): 8/8 | Ulcer coefficient (mm) mean ± S.E. ([4]; 12.5 mg/kg orally): 32.2 ± 4.9 mm | Suppression % ([4]; 12.5 mg/kg orally, vs Vehicle No. 3): 11.8% | Incidence of ulcer ([4]; 25 mg/kg orally): 8/8 | Ulcer coefficient (mm) mean ± S.E. ([4]; 25 mg/kg orally): 24.6 ± 8.8 mm | Suppression % ([4]; 25 mg/kg orally, vs Vehicle No. 2): 63.3% | Incidence of ulcer ([4]; 50 mg/kg orally): 5/8 | Ulcer coefficient (mm) mean ± S.E. ([4]; 50 mg/kg orally, * P < 0.01): 2.2 ± 1.1 mm | Suppression % [4, 11]: 96.3% | suppressory activity in the antiulcer test ([4]; in words, refers to both anti-ulcer tests): improved suppressory activity in the antiulcer test, as compared with FTZ used as a control | UD50 (mg/kg) (95% C.L.) ([4]; oral, 30 min before hydrochloric acid/ethanol): 22.8 mg/kg | Incidence of ulcer ([5]; 50 mg/kg orally): 8/8 | Ulcer coefficient (mm) mean ± S.E. ([5]; 50 mg/kg orally): 19.9 ± 4.6 mm | Suppression % [5, 11]: 37.6% | Incidence of ulcer ([5]; 100 mg/kg orally): 8/8 | Ulcer coefficient (mm) mean ± S.E. ([5]; 100 mg/kg orally, * p < 0.01): 9.8 ± 2.3 mm | Suppression % ([5]; 100 mg/kg orally, vs Vehicle No. 2): 57.2% | Incidence of ulcer ([5]; 150 mg/kg orally): 8/8 | Ulcer coefficient (mm) mean ± S.E. ([5]; 150 mg/kg orally, ** p < 0.01): 7.6 ± 1.4 mm | Suppression % ([5]; 150 mg/kg orally, vs Vehicle No. 3): 78.1% | UD50 (mg/kg) (95% C.L.) ([5]; oral, 30 min before water-soaking constraint): 72.8 mg/kg | Nd/No (No. of dead animals / total No.) ([6]; 1,250 mg/kg oral): 0/3 | Nd/No (No. of dead animals / total No.) ([6]; 2,500 mg/kg oral): 0/3 | Nd/No (No. of dead animals / total No.) ([6]; 5,000 mg/kg oral): 0/3 | death of animals ([6]; doses up to 5,000 mg/kg oral, in words): did not cause any animal to die | anti-hepatitis, liver function improving and anti-ulcer activity [7]: more markedly potent anti-ulcer activity as well as comparable anti-hepatitis and liver function improving activities
